Measurements reported in ChEMBL document CHEMBL1221328, “Relationships between structures of hydroxyflavones and their antioxidative effects” (Bioorg Med Chem Lett, 2010).

Assay: Antioxidant activity assessed as […] radical scavenging activity
Format: functional
Design: concentration or dose not given beside the values

Row | SMILES | Activity [%]
1 | O=c1cc(-c2ccccc2O)oc2c(O)c(O)ccc12 | 79.9
2 | O=c1cc(-c2ccc(O)cc2)oc2cc(O)c(O)c(O)c12 | 69.9
3 | O=c1c(O)c(-c2ccccc2O)oc2c(O)c(O)ccc12 | 83.1
4 | O=c1cc(-c2ccc(O)c(O)c2)oc2cc(O)c(O)cc12 | 86.4
5 | O=c1c(O)c(-c2ccc(O)cc2O)oc2cc(O)cc(O)c12 | 81.5
6 | O=c1c(O)c(-c2ccc(O)c(O)c2)oc2ccccc12 | 85.7
7 | O=c1c(O)c(-c2ccc(O)c(O)c2)oc2ccc(O)cc12 | 86.7
8 | O=c1c(O)c(-c2cc(O)c(O)c(O)c2)oc2cc(O)ccc12 | 79.9
9 | O=c1cc(-c2cccc(O)c2O)oc2ccc(O)cc12 | 87.1
10 | O=c1c(O)c(-c2ccccc2O)oc2cc(O)cc(O)c12 | 86.5
11 | O=c1c(O)c(-c2cccc(O)c2O)oc2ccc(O)cc12 | 86.6
12 | O=c1c(O)c(-c2ccc(O)c(O)c2)oc2cc(O)ccc12 | 85.2
13 | O=c1c(O)c(-c2ccc(O)cc2O)oc2ccc(O)cc12 | 86.3
14 | O=c1c(O)c(-c2ccccc2)oc2cccc(O)c12 | 58.3
15 | O=c1c(O)c(-c2cc(O)c(O)c(O)c2)oc2cc(O)cc(O)c12 | 79.5
16 | O=c1c(O)c(-c2ccc(O)c(O)c2)oc2c(O)c(O)cc(O)c12 | 85.4
17 | O=c1cc(-c2ccc(O)c(O)c2)oc2cc(O)ccc12 | 84.9
18 | O=c1cc(-c2cccc(O)c2)oc2c(O)c(O)ccc12 | 87.1
19 | O=c1cc(-c2ccccc2)oc2c(O)c(O)cc(O)c12 | 58.8
20 | O=c1c(O)c(-c2ccc(O)cc2)oc2cc(O)cc(O)c12 | 77.2
21 | O=c1cc(-c2cc(O)c(O)c(O)c2)oc2cc(O)ccc12 | 88.8
22 | O=c1c(O)c(-c2ccccc2O)oc2ccccc12 | 69.3
23 | O=c1c(O)c(-c2ccccc2)oc2cc(O)cc(O)c12 | 52.5
24 | O=c1cc(-c2ccc(O)c(O)c2)oc2c(O)c(O)ccc12 | 87.4
25 | O=c1c(O)c(-c2ccc(O)c(O)c2)oc2cc(O)cc(O)c12 | 87.8
26 | O=c1cc(-c2cc(O)cc(O)c2)oc2ccccc12 | 61.8
27 | O=c1c(O)c(-c2cc(O)c(O)cc2O)oc2ccc(O)cc12 | 85.6
28 | O=c1cc(-c2ccc(O)c(O)c2)oc2ccc(O)cc12 | 83.9
29 | O=c1cc(-c2cc(O)c(O)c(O)c2)oc2cc(O)cc(O)c12 | 88.1
30 | O=c1c(O)c(-c2ccccc2O)oc2ccc(O)cc12 | 86.8
